Results reported in PMC12314892, “Macrocyclic Phage Display for Identification of Selective Protease Substrates” (Journal of the American Chemical Society, 2025).
Where a SMILES comes first, the peptide text is derived from it. The star is where a group is joined. AMC = Cc1cc(=O)oc2cc(N*)ccc12

Molecular target: T1, Recombinant Human DPP9 (Homo sapiens, UniProt Q86TI2)
T1 construct: purchased R&D Systems 5419-SE-010
Assay: Fluorogenic substrate cleavage assay
Format: biochemical
Conditions: Supplementary figure 11; 200 μM, 1 hour at 37°C; 2 nM DPP4 vs 6 nM DPP9; RFU/min
Procedure: Fluorogenic Substrate Cleavage Assay
The following proteases were used for the activity assay: Recombinant Human FAPα Protein, CF (R&D Systems, Catalog No.: 3715-SE-010), Recombinant Human Prolyl Oligopeptidase/PREP Protein, CF (R&D Systems, Catalog No.: 4308-SE-010). Recombinant Human DPP9 Protein, CF (R&D Systems, Catalog No.: 5419-SE-010). Recombinant Human DPP4 Protein (Sino Biological, Catalog No.: 10688-HNCH-10). The buffers used for the activity assay were: FAPα - 50 mM Tris, 1 M NaCl, 1 mg/mL BSA, pH 7.5, PREP- 25 mM Tris, 250 mM NaCl, 2.5 mM DTT, pH 7.5 (DTT was freshly added immediately before use), DPP9- 25 mM Tris, pH 7.5, DPP4- 25 mM Tris, pH
7.5. The following commercial substrates were used: zGP-AMC (Bachem,Catalog No.: […]
conducted in Greiner Bio-One black microplates of 384 wells and polystyrene F-bottom (Catalog No.: 784076). All compounds were dissolved in DMSO at a concentration of 10 mM and then diluted into the respective buffer to the desired final concentration. The protease was added to the specified concentration before the fluorescence measurements. For fluorescence measurements, 2 μL of substrate was further diluted into 6 μL of buffer, followed by addition of 2 μL of enzyme in buffer. For no enzyme controls 2 μL of substrate was diluted into 8 μL of buffer.
The fluorescence was measured using a Cytation 3 plate reader (BioTek). All experiments have at least three technical replicates. All assays were conducted at 37°C for a minimum of 90 min, unless otherwise noted. Fluorescence measurements were performed at ex/em, 355/460 nm for ACC substrates. The substrates velocity was quantified by calculating the slope of the linear phase of the reaction as relative fluorescence units (RFU) per min. […]

T1 sequence (Q86TI2 whole entry): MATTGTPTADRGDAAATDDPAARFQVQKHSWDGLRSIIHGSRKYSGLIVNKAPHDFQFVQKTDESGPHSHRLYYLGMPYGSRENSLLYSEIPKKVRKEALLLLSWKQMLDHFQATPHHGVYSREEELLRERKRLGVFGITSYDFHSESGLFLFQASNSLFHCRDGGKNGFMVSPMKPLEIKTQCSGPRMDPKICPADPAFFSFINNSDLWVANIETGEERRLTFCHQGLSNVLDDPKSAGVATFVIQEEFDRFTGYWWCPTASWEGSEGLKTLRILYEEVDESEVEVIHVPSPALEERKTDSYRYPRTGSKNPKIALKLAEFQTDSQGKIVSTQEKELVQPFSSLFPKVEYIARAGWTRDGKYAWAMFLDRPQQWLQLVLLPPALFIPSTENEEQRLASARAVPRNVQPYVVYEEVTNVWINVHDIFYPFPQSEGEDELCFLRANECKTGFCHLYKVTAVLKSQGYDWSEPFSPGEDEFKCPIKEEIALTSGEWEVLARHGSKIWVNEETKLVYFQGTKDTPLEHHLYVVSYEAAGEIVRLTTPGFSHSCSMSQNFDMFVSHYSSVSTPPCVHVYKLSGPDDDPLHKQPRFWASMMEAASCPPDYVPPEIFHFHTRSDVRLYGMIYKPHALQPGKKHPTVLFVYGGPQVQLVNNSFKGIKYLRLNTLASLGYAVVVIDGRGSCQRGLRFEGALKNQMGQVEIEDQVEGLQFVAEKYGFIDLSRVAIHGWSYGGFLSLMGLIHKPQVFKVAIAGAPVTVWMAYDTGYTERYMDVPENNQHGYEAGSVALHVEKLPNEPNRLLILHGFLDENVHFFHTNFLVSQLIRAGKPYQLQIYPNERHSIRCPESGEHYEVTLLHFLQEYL

## Cc1cc(=O)oc2cc(NC(=O)[C@@H]3CCCN3C(=O)CN)ccc12 [GP-AMC] (H-Gly-Pro-{AMC})
  selectivity for DPP4 (vs DPP9): 11 fold
